Experiments:
thermophilic bacteria = assay: pH drop (acid formation) of thermophilic bacteria culture: liquid nutrient medium inoculated with crude juice, 65° C.; type: cell-based, thermophilic bacteria from sugar beet crude juice; settings: Example 9; for pH / ΔpH/h: 0.2 ml solution each added at pH 6.30, 6.28, 6.26, 6.24
Description: A liquid nutrient medium as used in microbiology and including 10 g bactopepton, 5 g meat extract, 5 g yeast extract, 1 g glucose, 1 g K2HPO4, 0.3 g KNO3, 0.1 g MgSO4*7H2O and 0.01 g FeSO4*7H2O per liter distilled water, is sterilized in the usual manner for 20 minutes at 120° C. and inoculated with 20 ml crude juice from large-scale sugar beet extraction in a 500 ml vessel heated at 65° C., with the pH being recorded on a recorder. […]
A liquid nutrient medium as used in Example 1 is inoculated with 40 ml crude juice from a sugar factory per liter, stirred at 65° C. and the pH drop is followed. A solution of 15 mg pure neoabietic acid (99%) per 1.5 ml ethanol is prepared.

[1] = test system: osmotolerant microorganisms; assay: pH drop of syrup with 60% dry substances during storage at 22° C.; type: cell-based; settings: 350 ppm
Description: A further pH drop is to be avoided or at least delayed by the addition of an agent. The juice is supplemented with rosin acids at a concentration of 200 ppm in the form of a 20% sodium salt solution.

CC(C)=C1C=C2CCC3C(C)(C(=O)O)CCCC3(C)C2CC1 (stereo not drawn) [neoabietic acid]
concentration at which the pH drop is stopped (thermophilic bacteria; ethanol solution, four additions of 0.2 ml, 40 ml crude juice per liter, 65° C.): 8 mg per liter | pH (thermophilic bacteria; Time 0 h): 6.90 | pH (thermophilic bacteria; Time 1 h): 6.90 | ΔpH/h (thermophilic bacteria; Time 1 h): 0.00 pH/h | pH (thermophilic bacteria; Time 2 h): 6.89 | ΔpH/h (thermophilic bacteria; Time 2 h): 0.01 pH/h | pH (thermophilic bacteria; Time 3 h): 6.87 | ΔpH/h (thermophilic bacteria; Time 3 h): 0.02 pH/h | pH (thermophilic bacteria; Time 3.5 h): 6.86 | ΔpH/h (thermophilic bacteria; Time 3.5 h): 0.02 pH/h | pH (thermophilic bacteria; Time 4 h): 6.85 | ΔpH/h (thermophilic bacteria; Time 4 h): 0.02 pH/h | pH (thermophilic bacteria; Time 4.5 h): 6.82 | ΔpH/h (thermophilic bacteria; Time 4.5 h): 0.06 pH/h | pH (thermophilic bacteria; Time 5 h): 6.72 | ΔpH/h (thermophilic bacteria; Time 5 h): 0.20 pH/h | pH (thermophilic bacteria; Time 5.5 h): 6.54 | ΔpH/h (thermophilic bacteria; Time 5.5 h): 0.36 pH/h | pH (thermophilic bacteria; Time 5.8 h): 6.30 | ΔpH/h (thermophilic bacteria; Time 5.8 h): 0.80 pH/h | pH (thermophilic bacteria; Time 6 h): 6.24 | ΔpH/h (thermophilic bacteria; Time 6 h): 0.30 pH/h | pH (thermophilic bacteria; Time 6.5 h): 6.24 | ΔpH/h (thermophilic bacteria; Time 6.5 h): 0.00 pH/h | pH (thermophilic bacteria; Time 7 h): 6.25 | ΔpH/h (thermophilic bacteria; Time 7 h): −0.02 pH/h | pH (thermophilic bacteria; Time 8 h): 6.25 | ΔpH/h (thermophilic bacteria; Time 8 h): 0.00 pH/h

C=O [HCHO, formaldehyde]
ph drop ([1]; Observation time 0 days): 0 | ph value ([1]; Observation time 0 days): 8.44 | ph drop ([1]; Observation time 1 days): 0.39 | ph value ([1]; Observation time 1 days): 8.05 | ph drop ([1]; Observation time 2 days): 0.48 | ph value ([1]; Observation time 2 days): 7.96 | ph drop ([1]; Observation time 5 days): 0.67 | ph value ([1]; Observation time 5 days): 7.77

Source: patent publication US6770147B2, “METHOD FOR THE PRODUCTION OF SUGAR OR SUGAR-CONTAINING PRODUCTS FROM SUGAR-CONTAINING VEGETABLE RAW MATERIALS, SUGAR AND SUGAR-CONTAINING PRODUCTS MADE BY THE METHOD, AND EXTRACTION SOLUTION FOR USE IN THE METHOD” (Zuckerforschung Tulln Gesellschaft m.b.H., priority 2000, dated 2004)
